Measurements from the NIST ThermoML archive (doi:10.1016/j.tca.2016.05.007).

Assay: molar heat capacity at constant pressure
Settings: 101.33 kPa, Small (less than 1 g) adiabatic calorimetry

COc1ccc(C2(c3ccc(OC)c(C)c3)OC(=O)c3ccccc32)cc1C [3,3-bis(4-methoxy-3-methylphenyl)-1(3H)-isobenzofuranone]
Settings	molar heat capacity at constant pressure [J/K/mol]
5.802 K, Glass	2.967
6.011 K, Crystal	1.658
6.232 K, Glass	3.526
6.486 K, Crystal	2.176
6.689 K, Glass	4.234
6.977 K, Crystal	2.797
7.179 K, Glass	5.003
7.498 K, Crystal	3.461
7.715 K, Glass	5.872
8.061 K, Crystal	4.249
8.282 K, Glass	6.885
8.65 K, Crystal	5.21
8.874 K, Glass	8.044
9.274 K, Crystal	6.207
9.483 K, Glass	9.187
9.939 K, Crystal	7.418
10.1 K, Glass	10.44
10.63 K, Crystal	8.764
10.73 K, Glass	11.74
11.34 K, Crystal	10.21
11.35 K, Glass	13.13
11.98 K, Glass	14.45
12.03 K, Crystal	11.58
12.62 K, Glass	15.86
12.71 K, Crystal	13.08
13.28 K, Glass	17.41
13.41 K, Crystal	14.58
13.96 K, Glass	18.93
14.13 K, Crystal	16.23
14.66 K, Glass	20.58
14.89 K, Crystal	18.08
15.39 K, Glass	22.28
15.68 K, Crystal	19.91
16.15 K, Glass	24.12
16.49 K, Crystal	21.8
16.94 K, Glass	25.94
17.04 K, Crystal	22.93
17.66 K, Glass	27.62
17.91 K, Crystal	25.25
18.49 K, Glass	29.63
18.78 K, Crystal	27.27
19.34 K, Glass	31.77
19.67 K, Crystal	29.41
20.21 K, Glass	33.84
20.58 K, Crystal	31.37
21.11 K, Glass	35.96
21.5 K, Crystal	33.68
22.03 K, Glass	38.09
22.45 K, Crystal	35.73
23 K, Glass	40.41
23.44 K, Crystal	38.11
24.02 K, Glass	42.79
24.48 K, Crystal	40.68
25.08 K, Glass	45.25
25.54 K, Crystal	43.24
26.16 K, Glass	47.65
26.63 K, Crystal	45.57
27.26 K, Glass	50.09
27.74 K, Crystal	48.13
28.38 K, Glass	52.99
28.86 K, Crystal	51.61
29.5 K, Glass	56.69
29.99 K, Crystal	54.09
30.63 K, Glass	57.45
31.12 K, Crystal	55.63
31.76 K, Glass	60.08
32.25 K, Crystal	58.38
32.9 K, Glass	63.09
33.39 K, Crystal	61.18
34.06 K, Glass	65.62
34.56 K, Crystal	63.78
35.25 K, Glass	68.43
35.74 K, Crystal	66.5
36.45 K, Glass	70.84
36.95 K, Crystal	69.15
37.67 K, Glass	73.54
38.17 K, Crystal	71.7
38.9 K, Glass	75.9
39.4 K, Crystal	74.01
40.15 K, Glass	78.39
40.66 K, Crystal	76.39
41.41 K, Glass	80.76
41.94 K, Crystal	79
42.68 K, Glass	83.53
43.23 K, Crystal	81.44
43.93 K, Glass	85.97
44.51 K, Crystal	83.92
45.19 K, Glass	88.07
45.78 K, Crystal	86.54
46.45 K, Glass	90.22
47.06 K, Crystal	89.06
47.71 K, Glass	93.04
48.33 K, Crystal	91.12
48.97 K, Glass	95.25
49.6 K, Crystal	94.6
50.23 K, Glass	98.01
50.87 K, Crystal	97.15
51.48 K, Glass	100.37
52.14 K, Crystal	99.73
52.74 K, Glass	103.27
53.41 K, Crystal	102.49
54 K, Glass	105.75
54.68 K, Crystal	105
55.27 K, Glass	108.28
55.95 K, Crystal	107.6
56.53 K, Glass	110.76
57.22 K, Crystal	109.68
57.79 K, Glass	113.22
58.5 K, Crystal	112.22
59.06 K, Glass	115.64
59.77 K, Crystal	114.59
60.33 K, Glass	117.82
61.05 K, Crystal	116.87
61.6 K, Glass	120.17
62.33 K, Crystal	119.39
62.87 K, Glass	122.44
63.61 K, Crystal	121.85
64.15 K, Glass	124.78
64.89 K, Crystal	123.86
65.43 K, Glass	126.76
66.18 K, Crystal	125.9
66.72 K, Glass	129.06
67.47 K, Crystal	128.08
68.01 K, Glass	131.4
68.77 K, Crystal	130.54
69.3 K, Glass	133.63
70.07 K, Crystal	132.99
70.6 K, Glass	136.05
71.38 K, Crystal	135.25
71.91 K, Glass	138.21
72.69 K, Crystal	137.49
73.22 K, Glass	140.28
74.01 K, Crystal	139.48
74.59 K, Glass	142.77
75.33 K, Crystal	141.75
76.03 K, Glass	145.08
76.66 K, Crystal	144.1
77.47 K, Glass	147.57
77.99 K, Crystal	146.27
78.91 K, Glass	149.7
79.33 K, Crystal	148.82
80.36 K, Glass	152.24
80.67 K, Crystal	150.88
81.81 K, Glass	154.61
82.09 K, Crystal	152.82
83.27 K, Glass	156.85
83.57 K, Crystal	155.34
84.73 K, Glass	159.35
85.06 K, Crystal	157.59
86.19 K, Glass	161.67
86.55 K, Crystal	160.21
87.66 K, Glass	164.03
88.04 K, Crystal	162.51
89.14 K, Glass	166.13
89.54 K, Crystal	164.72
90.62 K, Glass	168.74
91.05 K, Crystal	167.41
92.11 K, Glass	171.18
92.56 K, Crystal	169.71
93.61 K, Glass	173.56
94.08 K, Crystal	172.05
95.11 K, Glass	176.28
95.6 K, Crystal	174.26
96.62 K, Glass	178.27
97.14 K, Crystal	176.64
98.14 K, Glass	180.03
98.67 K, Crystal	178.97
99.67 K, Glass	182.72
100.22 K, Crystal	181.39
101.2 K, Glass	185
101.77 K, Crystal	183.97
102.74 K, Glass	186.83
103.33 K, Crystal	186.52
104.29 K, Glass	189.85
104.9 K, Crystal	188.69
105.85 K, Glass	192.15
106.48 K, Crystal	190.79
107.42 K, Glass	194.15
108.07 K, Crystal	193.1
109 K, Glass	196.63
109.72 K, Crystal	195.77
110.58 K, Glass	199.21
111.45 K, Crystal	198.35
112.18 K, Glass	201.62
113.19 K, Crystal	200.89
113.78 K, Glass	204.03
114.95 K, Crystal	203.39
115.4 K, Glass	206.27
116.73 K, Crystal	205.7
117.1 K, Glass	208.63
118.52 K, Crystal	209.32
118.89 K, Glass	211.16
120.34 K, Crystal	211.71
120.69 K, Glass	213.89
